Laboratory results taken from ChEMBL document CHEMBL5303304, “EUbOPEN Chemogenomics Library - IncuCyte” (2023).

Legend:
Format in all cases: toxicity, cell-based
[1] = test system: HEK-293T; assay: Incucyte cell viability with HEK293T; conditions: human, 10 µM, compound concentration 10 uM
[2] = test system: Fibroblast; assay: Incucyte cell viability with human fibroblast; conditions: 10 µM, compound concentration 10 uM
[3] = test system: U2OS; assay: Incucyte cell viability with U2OS; conditions: human, 10 µM, compound concentration 10 uM
Also: unitless GR value; below 1 slowed growth and below 0 cell loss.

| SMILES | Growth Rate ([1]; 0 h, replicate number 1) | Growth Rate ([1]; 12 h, replicate number 2) | Growth Rate ([1]; 18 h, replicate number 2) | Growth Rate ([1]; 24 h, replicate number 2) | Growth Rate ([2]; 0 h, replicate number 1) | Growth Rate ([2]; 12 h, replicate number 2) | Growth Rate ([2]; 18 h, replicate number 2) | Growth Rate ([3]; 0 h, replicate number 1) | Growth Rate ([3]; 6 h, replicate number 1) | Growth Rate ([3]; 12 h, replicate number 1) | Growth Rate ([3]; 18 h, replicate number 1) | Growth Rate ([3]; 18 h, replicate number 2) | Growth Rate ([3]; 24 h, replicate number 1) | Growth Rate ([3]; 24 h, replicate number 2) | Growth Rate ([1]; 12 h, replicate number 1) | Growth Rate ([1]; 24 h, replicate number 1) | Growth Rate ([2]; 0 h, replicate number 2) | Growth Rate ([2]; 6 h, replicate number 1) | Growth Rate ([2]; 12 h, replicate number 1) | Growth Rate ([3]; 12 h, replicate number 2) | other results |
| --- | --- | --- | --- | --- | --- | --- | --- | --- | --- | --- | --- | --- | --- | --- | --- | --- | --- | --- | --- | --- | --- |
| NS(=O)(=O)c1ccc(Nc2nc(OCC3CCCCC3)c3nc[nH]c3n2)cc1 | 0.76 | 0.98 | 0.9 | 0.82 | -1 | 0.55 | 0.56 | -0.84 | -0.3 | 0.53 | 0.8 | 0.94 | 0.87 | 0.93 | – | – | – | – | – | – | – |
| CCn1c(CNC(=O)c2ncc(C)nc2N)[n+](CC)c2ccc(C(=O)N(C)CCN(C)C)cc21.Cl.Cl.[Cl-] | 0.03 | – | – | – | -1 | – | – | – | 0.58 | 0.62 | – | – | 0.97 | – | 0.97 | 1 | -0.3 | 0 | 0.87 | 0.9 | Growth Rate ([2]; 18 h, replicate number 1): 0.98; Growth Rate ([2]; 24 h, replicate number 1): 0.9; Growth Rate ([3]; 0 h, replicate number 2): 0.31; Growth Rate ([3]; 6 h, replicate number 2): 0.99 |
| CC(C)C(=O)N[C@@H]1CCN(C(=O)Nc2nc3c(s2)-c2nc(-c4ccccc4Cl)ncc2CC3)C1 | – | -0.08 | 0.03 | 0.15 | -0.95 | – | – | – | – | 0.94 | 0.91 | 0.77 | 0.88 | 0.69 | 0.16 | 0.37 | – | – | – | 0.9 | Growth Rate ([1]; 6 h, replicate number 1): 0.21; Growth Rate ([1]; 6 h, replicate number 2): -0.05; Growth Rate ([1]; 18 h, replicate number 1): 0.29 |
| C[C@H](c1ccnc(Nc2nc3ccc(-c4cc(N(C)C)ncn4)cc3[nH]2)c1)N1CCN(C(=O)CC(F)(F)F)CC1 [BAY-985] | 0.79 | 0.95 | 0.94 | 0.92 | – | – | – | -0.23 | – | – | – | – | – | – | – | – | -1 | 0.99 | -1 | 0.94 | Growth Rate ([1]; 0 h, replicate number 2): 0.27; Growth Rate ([1]; 6 h, replicate number 1): 0.4; Growth Rate ([1]; 6 h, replicate number 2): 0.84; Growth Rate ([2]; 6 h, replicate number 2): -0.72; Growth Rate ([2]; 24 h, replicate number 1): 0.04 |
| CC(C)NC(=O)[C@H]1CCC[C@H]1Nc1nc(Nc2ccc(CN(C)C)cc2)ncc1Br.Cl | – | -0.36 | -0.19 | 0.01 | – | -0.59 | -0.51 | -0.38 | 0.07 | -0.31 | 0.3 | 0.24 | 0.32 | 0.2 | -0.3 | 0.2 | – | -0.53 | -0.42 | 0.15 | Growth Rate ([1]; 0 h, replicate number 2): -1; Growth Rate ([1]; 6 h, replicate number 1): -0.59; Growth Rate ([1]; 6 h, replicate number 2): -0.5; Growth Rate ([1]; 18 h, replicate number 1): -0.04; Growth Rate ([2]; 6 h, replicate number 2): -0.82; Growth Rate ([2]; 18 h, replicate number 1): -0.37; Growth Rate ([2]; 24 h, replicate number 1): -0.38; Growth Rate ([2]; 24 h, replicate number 2): -0.46; Growth Rate ([3]; 0 h, replicate number 2): 0.74; Growth Rate ([3]; 6 h, replicate number 2): 0.17 |
| COc1ccc(S(=O)(=O)N2CCOCC2)cc1Nc1ccc2c(n1)N(C1CCOCC1)[C@H](C)C(=O)N2C | – | – | – | 0.81 | – | 0.55 | 0.25 | – | – | – | – | – | 0.7 | 0.96 | – | 0.7 | -0.13 | – | – | – | Growth Rate ([2]; 6 h, replicate number 2): -0.44; Growth Rate ([2]; 24 h, replicate number 2): 0.36 |
| Cc1c(N2CCCC2)nc2ccc(Br)cc2c1C(=O)NC[C@H](CCC(=O)O)c1ccccc1Cl.Cl.O | 0.22 | – | – | – | -1 | 0.93 | – | – | 0.65 | 0.97 | 0.93 | 0.99 | 0.91 | 0.92 | – | – | -0.4 | 0.4 | – | – | Growth Rate ([1]; 0 h, replicate number 2): -0.18; Growth Rate ([3]; 0 h, replicate number 2): -0.04 |
